Experimental data reported in patent US7709514B2, “Therapeutic molecules and methods-1” (Cortical Pty Ltd, priority 2002, dated 2010).
Where two headings read alike, the source gives them in different places.

How the values were obtained:
[1] = test system: antigen-specific T cell activation; test: antigen-specific (mBSA) activation of splenic T lymphocytes, 3H-thymidine incorporation; type: cell-based, mice; conditions: Mus musculus, T-cell, read-out: EC50, inhibition of T cell activation
Description: C57BL6/J male mice, aged 7-10 weeks old, were immunised with 200 μg of methylated bovine serum albumin (mBSA) dissolved in 20 μL of saline, emulsified in 200 μL of Freund's complete adjuvant (FCA) by subcutaneous injection. Seven (7) days later mice received a booster immunisation with 100 μg mBSA in 10 μL saline plus 100 μL FCA by subcutaneous injection. After a further seven (7) days mice were killed and spleens collected aseptically into Hanks buffered saline solution (HBSS). A single cell suspension was prepared in Petri dishes by flushing DMEM using a 26G needle and 2 mL syringe. The resulting cell suspension was centrifuged for 5-7 minutes and supernatant discarded. Erythrocytes were lysed using a solution containing 0.579% NH4Cl, 0.000037% EDTA, and 0.1% NaHCO3 in a 37° C. water bath. Tubes were then filled with DMEM and centrifuged for 5-7 minutes. The cell-containing pellet was then resuspended in DMEM containing 5% fetal calf serum TICS) and 0.05% 2-mercapto-ethanol at a concentration of 1×10^6 cells/mL and plated at 1×10^5 cells/well in 96-well plastic tissue culture plates. Test substances (compound or vehicle) were added and incubated for 1 hour in a 37° C., 5% CO2 incubator. The specific stimulating antigen, mBSA, was then added at 10-50 μg/ml and plates incubated for 30 hours in a 37° C., 5% CO2 incubator. Tritiated ^3H-thymidine was then added at a concentration of 0.5 μCi/well for a further 18 hours. Cells were harvested on a Packard cell harvester, and the harvested material added to 750 μL/tube scintillation fluid. Scintillation counts were read on a Wallac beta-emission counter.
The concentration at which T cell activation was suppressed by 50% compared to vehicle-only-treated cells (EC50) was calculated using Prism® software. […] Further compounds were also tested for their ability to inhibit antigen-specific T cell activation as a marker of the inhibition of the cytokine or biological activity of MIF using this assay. Table 5 lists the EC50 for each compound in this assay, performed with concentrations of mBSA of either 50 or 10 μg/ml.

[2] = test system: IL-1-induced COX-2 expression; test: IL-1-induced COX-2 expression in S112 human dermal fibroblasts (MIF-dependent bioassay); type: cell-based; conditions: Homo sapiens, Fibroblast; for inhibition at 50 µM: read-out: % inhibition of IL-1-induced COX-2 expression; for inhibition at 25 µM: compound 25 μM
Description: The activity of compounds was studied in a bioassay utilising MIF-dependent activation of human dermal fibroblasts. […] IL-1-induced COX-2 expression is therefore a MIF-dependent event. […] Prior to experimentation, cells were seeded at 10^5 cells/ml in RPMI/0.1% BSA for 18 hours. […] After 6 hours, cells were collected and intracellular COX-2 protein determined by permeabilisation flow cytometry. […] Cellular fluorescence was determined using a flow cytometer. At least 5000 events were counted for each reading, each of which was performed in duplicate, and the results expressed in mean fluorescence intensity (MFI) after subtraction of negative control-labelled cell fluorescence. The effect of each compound was determined by subtracting the IL-1+compound-treated cell MFI from the IL-1-treated cell (control) MFI and expressed as % inhibition. In each case the % inhibition of IL-1-induced COX-2 expression is expressed as the mean, or mean±SEM where results are available from multiple experiments.

[3] = test system: murine peritoneal macrophage nitric oxide production; test: inhibition of peritoneal macrophage nitric oxide release (Greiss assay); type: cell-based, mice; conditions: Mus musculus, LPS 10 ng/ml and interferon-γ 10 units/ml, 24 hours, read-out: % Nitrite concentration inhibition from control
Description: C57BL6/J male mice were injected intraperitoneally with 2 ml of thioglycollate. Five (5) days later peritoneal macrophages were collected by lavaging the peritoneum of anaesthetized mice with 3 ml of cold Hanks buffered saline solution. Cells from several mice were pooled, washed and re-suspended in DMEM supplemented with 5% FCS. Cells were plated in 96 well plastic tissue culture plates at 1×10^5 cells/well. Cells were treated with compound or vehicle for 1 hour in a 5% CO2 incubator at 37° C. Cells were then treated with LPS (10 ng/ml) and recombinant human interferon-γ (10 units/ml) and incubated for 24 hours. After 24 hours, 50 μl of supernatant from each well was carefully removed and transferred to ELISA plates. The concentration of nitrite in culture supernatants was measured by the Greiss assay (27). The results were defined as the percentage inhibition of nitrite concentration in compound-treated cell culture supernatants compared to that of vehicle-treated cells.

[4] = compound 50 μM, S112 cells, IL-1 0.1 ng/ml, 6 hours
[5] = S112 cells, IL-1 0.1 ng/ml, 6 hours

EC50 ([1]; mBSA 10 μg/ml) [µM]	EC50 ([1]; mBSA 50 μg/ml) [µM]	SMILES	inhibition at 50 µM [2, 4] [%]	other results
> 100	> 100	CCCCCSC(=O)c1ccc2[nH]c(=O)[nH]c2c1 [Compound 25, Pentyl-benzimidazol-2-one-5-carbothioate]	–	–
9.4	10.1	CCCCCOC(=O)c1ccc2[nH]c(=S)[nH]c2c1 [Compound 15, Pentyl-benzimidazole-2-thioxo-5-carboxylate]	33.1	–
13.5	49.9	CCCCCc1ccc2[nH]c(=O)[nH]c2c1 [Compound 34, 5-Pentylbenzimidazol-2-one]	–	inhibition at 10 µM ([2]; compound 10 μM, S112 cells, IL-1 0.1 ng/ml, 6 hours): 14.9%
> 100	> 100	CCCCNC(=N)c1ccc2[nH]c(=O)[nH]c2c1 [Compound 32, N-butyl-2-oxo-2,3-dihydro-1H-1,3-benzimidazole-5-carboximidamide]	13.8	melting point: 168 °C
9.15	1.29	CCCCCNS(=O)(=O)c1ccc2[nH]c(=O)[nH]c2c1 [Compound 27, 2(3H)-benzimidazolone-5-sulfonic acid pentyl amide]	37.4	melting point: 316 to 318 °C
25.4	> 100	CCOC(=O)c1ccc2[nH]c(=O)[nH]c2c1 [Compound 8]	19.9	–
2.19	7.37	CCCCCOS(=O)(=O)c1ccc2[nH]c(=O)[nH]c2c1 [Compound 28, 2(3H)-benzimidazolone-5-sulfonic acid pentyl ester]	–	–
33.9	44.8	COC(=O)c1ccc2[nH]c(=O)[nH]c2c1 [Compound 7, benzimidazol-2-one-5-methanoate]	16.7	–
10.2	2.31	O=C(O)CCCC(=O)c1ccc2[nH]c(=O)[nH]c2c1 [Compound 26, 5-(benzimidazol-2(3H)-one-6-yl)-5-oxopentanoic acid]	9.8	–

Continued, compound first:

SMILES	EC50 ([1]; mBSA 10 μg/ml) [µM]	EC50 ([1]; mBSA 50 μg/ml) [µM]	inhibition at 50 µM [2, 4] [%]	other results
CCCCCCC(=O)c1ccc2c(c1)CC(=O)O2 [Compound 33]	24.8	14	–	melting point: 64 to 67 °C
O=C(NC(CO)C(=O)O)c1ccc2[nH]c(=O)[nH]c2c1 (stereo not drawn) [Compound 10, 3-hydroxy-2-{[(2-oxo-2,3-dihydro-1H-1,3-benzimidazol-5-yl)carbonyl]amino}propanoic acid]	> 100	77.5	19.3	–
Cc1cc2[nH]c(=O)[nH]c2cc1[N+](=O)[O-] [Compound 22, 5-Methyl-6-nitrobenzimidazol-2-one]	> 100	> 100	–	inhibition at 25 µM [2, 5]: 30%
Cc1ccc2[nH]c(=O)[nH]c2c1 [Compound 2, 5-Methylbenzimidazol-2-one]	–	–	–	inhibition at 50 µM ([2]; 6 h): 13%; EC50 [1]: 7.29 µM; melting point: 300 to 302 °C
O=C(OCCOCCO)c1ccc2[nH]c(=O)[nH]c2c1 [Compound 6, 5[2(1-oxy-2-hydroxyethyl)ethyl]benzimidazol-2-one-5-carboxylate]	25.8	> 100	17.8	melting point: 227 to 228 °C
Cc1cc2[nH]c(=O)[nH]c2cc1N [Compound 23, 5-Amino-6-methylbenzimidazol-2-one]	–	–	8.5	–
COC(=O)C(Cc1ccccc1)NC(=O)c1ccc2[nH]c(=O)[nH]c2c1 (stereo not drawn) [Compound 11, methyl 2-{[(2-oxo-2,3-dihydro-1H-1,3-benzimidazol-5-yl)carbonyl]amino}-3-phenyl propanoate]	44.4	50.7	17.5	inhibition at 25 µM ([3]; compound 25 μM): 3.1%; inhibition at 50 µM ([3]; compound 50 μM): 28.1%; inhibition at 100 µM ([3]; compound 100 μM): 65.5%
Cc1cc2[nH]c(=O)[nH]c2cc1O [Compound 18, 5-Hydroxy-6-methybenzimidazol-2-one]	19.3	34	2.4	–
Cc1c(Br)c(Br)c2[nH]c(=O)[nH]c2c1Br [Compound 20, 4,5,7-Tribromo-6-methylbenzimidazol-2-one]	–	–	–	inhibition at 25 µM [2, 5]: 28.5%
O=C(NC(Cc1ccccc1)C(=O)O)c1ccc2[nH]c(=O)[nH]c2c1 (stereo not drawn) [Compound 12, 2-{[(2-oxo-2,3-dihydro-1H-1,3-benzimidazol-5-yl)carbonyl]amino}-3-phenyl propanoic acid]	> 100	77.9	19.9	–
COC(=O)C(CO)NC(=O)c1ccc2[nH]c(=O)[nH]c2c1 (stereo not drawn) [Compound 9, methyl 3-hydroxy-2-{[(2-oxo-2,3-dihydro-1H-1,3-benzimidazol-5-yl)carbonyl]amino}propanoate]	77	61.9	14.9	–
Cc1cc2[nH]c(=O)[nH]c2cc1Br [Compound 17, 5-Bromo-6-methybenzimidazol-2-one]	2.91	10.7	22.4	–
Cc1cc2[nH]c(=O)[nH]c2cc1NC(=O)CSc1ncccn1 [Compound 24]	–	–	30.3	–
CC(=O)OCC1OC(OC(=O)c2ccc3[nH]c(=O)[nH]c3c2)C(OC(C)=O)C(OC(C)=O)C1OC(C)=O (stereo not drawn) [Compound 16, 3,4,5-tris(acetyloxy)-6-[(acetyloxy)methyl]tetrahydro-2H-pyran-2-yl-benzimidazole-2-one-5-carboxylate]	23.8	26	–	–
